In patent US5834257A, “α-agarase and production process of oligosaccharides and monosaccharides” (Japan Tobacco Inc., priority 1995, dated 1998):

System: α-NAOS hydrolase (α-agarase) derived from Vibrio sp. JT0107-L4, N-terminal sequence SEQ ID NO:2
Experiment: Michaelis constant and maximum velocity by Lineweaver-Burk plot, neoagarobiose degradation measured by HPLC
Format: biochemical
Conditions: substrate neoagarobiose, 20 mM potassium phosphate buffer pH 7.8, 30° C.
Method: The activity determination of purified or partially purified products of this enzyme is conducted as follows. After an enzyme reaction with neoagarobiose as the substrate, the amount of degraded neoagarobiose is calculated from the amount of intact neoagarobiose which is determined by HPLC. Details are as follows. A 0.1% solution of neoagarobiose dissolved in 20 mM potassium phosphate buffer (pH 7.8) is prepared. This solution, as the substrate, in a volume of 90 μl was mixed with 10 μl of the enzyme solution. The mixed solution is incubated at 30° C. for 5 to 30 minutes, preferably for 10 minutes; the reaction is stopped by heating in boiling water for 1 minute. This reaction solution in a volume of 10 μl is applied to a column, Capcell pak C-18 (manufactured by Shiseido) which is of 4.5 mm in internal diameter and 250 mm in length, and eluted at a flow rate of 1 ml/min using water as the eluent; the amount of neoagarobiose not degraded by the enzyme reaction, which has a retention time of about 4.5 minutes, is quantified. The amount of degraded neoagarobiose is calculated inversely from the value in this measurement, assuming that the amount of enzyme degrading 1 μmol neoagarobiose per minute is 1 U. Neoagarobiose consisting of 3,6-anhydro-L-galactose and D-galactose through α-1,3 bond was used as the substrate. Various substrate solutions of different concentration were prepared. […]

- Km: 4.28 ± 5 mM
- maximum velocity (1 U = 1 μmol neoagarobiose degraded per minute): 87 U/mg-protein
SMILES: OC[C@H]1OC(O)[C@H](O)[C@@H](O[C@@H]2O[C@H]3CO[C@@H]([C@@H]2O)[C@@H]3O)[C@H]1O (some centres unmarked) [Neoagarobiose]
